# In patent US20260374754A1, “N-((ISOQUINOLIN-6-YL)METHYL)-1H-PYRAZOLE-4-CARBOXAMIDE DERIVATIVES AS PLASMA KALLIKREIN INHIBITORS FOR THE TREATMENT OF HEREDITARY ANGIODEMA” (Takeda Pharmaceutical Company Limited, priority 2022, published 2026):
# Tests used:
# [1] = molecular target: human activated kallikrein enzyme (Homo sapiens, UniProt P03952); test: Inhibition of human activated plasma kallikrein, fluorogenic PFR-AMC substrate, 500 pM enzyme format; format: biochemical; conditions: 500 pM activated kallikrein; 300 μM PFR-AMC; 30 min preincubation; 10 min room temperature; pH 7.5; read-out: Primary Dose Response Assay: Average EC50
# Outline: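 500 pM activated kallikrein preincubated 30 min at room temperature with inhibitors in pH 7.5 Tris/EDTA/NaCl buffer with PEG-400 and Triton X-100. Reaction started with 300 μM PFR-AMC, run 10 min at room temperature; AMC fluorescence read at ex 380/em 460 nm.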
# [2] = molecular target: T1, plasma kallikrein (Homo sapiens, UniProt P03952); test: Neat Human Plasma Assay (Fluorogenic Peptide), contact pathway-activated (FXIIa) plasma; format: biochemical; conditions: human citrated plasma 78% final; 10 nM human FXIIa; PFR-AMC substrate; 5 minutes; room temperature
# T1 construct: PFR-AMC substrate
# Outline: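 Compound spiked into citrated human plasma (78% final), or plasma taken from rats dosed orally or IV. Activation by 10 nM FXIIa, then […] PFR-AMC in PKa buffer pH 7.5 at room temperature. Fluorescence rate over 5 min, with IC50/IC90 from 4-parameter fit.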
# T1 sequence (P03952 20-638): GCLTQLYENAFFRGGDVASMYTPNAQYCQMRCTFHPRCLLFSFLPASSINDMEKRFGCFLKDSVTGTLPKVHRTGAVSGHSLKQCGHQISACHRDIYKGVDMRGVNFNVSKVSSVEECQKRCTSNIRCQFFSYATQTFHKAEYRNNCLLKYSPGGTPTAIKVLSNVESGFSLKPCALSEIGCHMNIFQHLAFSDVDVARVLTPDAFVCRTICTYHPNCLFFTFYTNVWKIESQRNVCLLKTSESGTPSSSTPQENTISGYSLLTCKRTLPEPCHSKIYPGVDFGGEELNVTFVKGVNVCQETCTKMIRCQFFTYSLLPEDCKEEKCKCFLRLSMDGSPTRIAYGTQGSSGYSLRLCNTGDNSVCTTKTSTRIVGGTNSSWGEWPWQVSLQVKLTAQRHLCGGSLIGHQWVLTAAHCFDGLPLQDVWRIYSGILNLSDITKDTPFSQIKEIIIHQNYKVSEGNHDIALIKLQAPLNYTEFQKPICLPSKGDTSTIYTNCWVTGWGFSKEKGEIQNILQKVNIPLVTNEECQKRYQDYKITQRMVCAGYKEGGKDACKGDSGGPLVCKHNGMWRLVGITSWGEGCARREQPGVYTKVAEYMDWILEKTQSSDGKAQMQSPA
# Sequence of human activated kallikrein enzyme (P03952 391-638 limits assumed): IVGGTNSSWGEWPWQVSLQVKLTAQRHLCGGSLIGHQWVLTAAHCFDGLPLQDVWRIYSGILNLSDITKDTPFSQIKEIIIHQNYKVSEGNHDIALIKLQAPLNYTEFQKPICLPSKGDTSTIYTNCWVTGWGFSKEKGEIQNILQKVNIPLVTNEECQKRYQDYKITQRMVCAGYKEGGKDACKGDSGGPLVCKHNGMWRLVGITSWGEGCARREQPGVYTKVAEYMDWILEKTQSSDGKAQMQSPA
# Sequence of human activated kallikrein enzyme (P03952 20-390 partner limits assumed): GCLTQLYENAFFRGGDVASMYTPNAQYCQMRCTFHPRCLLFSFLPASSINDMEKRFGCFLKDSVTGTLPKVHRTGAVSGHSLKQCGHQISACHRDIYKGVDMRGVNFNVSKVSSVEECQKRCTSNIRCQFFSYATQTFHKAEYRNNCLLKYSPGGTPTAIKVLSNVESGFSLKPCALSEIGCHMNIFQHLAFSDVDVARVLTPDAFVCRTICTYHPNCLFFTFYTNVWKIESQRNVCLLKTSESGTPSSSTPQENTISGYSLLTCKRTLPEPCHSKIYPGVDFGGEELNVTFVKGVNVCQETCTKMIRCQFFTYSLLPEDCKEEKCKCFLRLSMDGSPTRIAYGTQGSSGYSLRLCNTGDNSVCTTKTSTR
EC50 [1],IC90 [2],SMILES
< 1 nM,1000 to 5000 nM,"Cc1cc2c(N)nccc2c(C)c1CNc1cc(OCc2cc3cc(C4CC4)cc(CC(C)(C)C(N)=O)n3n2)ncn1 [Example 509, 3-(2-(((6-(((1-amino-5,7-dimethylisoquinolin-6-yl)methyl)amino)pyrimidin-4-yl)oxy)methyl)-5-cyclopropylpyrazolo[1,5-a]pyridin-7-yl)-2,2-dimethylpropanamide]"
< 1 nM,> 5000 nM,"Cc1cc2c(N)nccc2c(C)c1CNc1cc(NCc2ccc(Cn3cccn3)cc2)ncn1 [Example 340, N^4-(4-((1H-pyrazol-1-yl)methyl)benzyl)-N^6-((1-amino-5,7-dimethylisoquinolin-6-yl)methyl)pyrimidine-4,6-diamine]"
< 1 nM,1000 to 5000 nM,Cc1cc2c(N)nccc2c(C)c1CNc1cc(NCc2cc3cc(C4CC4)ccn3n2)ncn1 [Example 244]
